Assay results as given in patent US20240293416A1, “TREATMENT OF LIVER DISORDERS WITH A THR-ß AGONIST” (Terns Pharmaceuticals, Inc., priority 2021, published 2024).

Columns and labels:
[1] = Multiple ascending dose trial: adverse event and safety monitoring; format: in vivo, human; settings: for AEs by relationship to drug: Not related / AEs by relationship to drug: Possibly related / AEs by relationship to drug: Related / AEs by relationship to drug: Unlikely related / Any AE, all CTCAE grades / Grade 1 / Grade 2 or higher / Serious AEs: N = 6
Experimental: A multiple-ascending dose clinical trial of Compound 1 was performed.

[2] = test system: SHBG, LDL-c and other lipid parameters; experiment: Multiple ascending doses in healthy subjects with elevated LDL-c: PD markers; format: in vivo, human; settings: 1, 3, 6 or 10 mg once daily for 14 days
From the text: Secondary Objectives: Evaluate the PK and PD of Compound 1 in healthy subjects with elevated LDL-c following multiple ascending doses of Compound 1.

[3] = Food effect on PK performance in beagle dogs; format: in vivo; settings: 10 mg capsule, 5% SLS; fasted vs high fat fed dogs, n=3 per group
Experimental: To determine the food effect on PK performance, beagle dogs were divided into two groups (n=3 per group). For the fasted group, dogs were fasted overnight through 4-hours post dosing. For the fed group, dogs were fed high fat food 30 minutes prior to administration.

[4] = 14-day daily dosing up to 10 mg

N#Cc1nn(-c2cc(Cl)c(Oc3n[nH]c(=O)c4ccccc34)c(Cl)c2)c(=O)[nH]c1=O [Compound 1, 2-(3,5-dichloro-4-((4-oxo-3,4-dihydrophthalazin-1-yl)oxy)phenyl)-3,5-dioxo-2,3,4,5-tetrahydro-1,2,4-triazine-6-nitrile]
AEs by relationship to drug: Not related ([1]; 3 mg once daily for 14 days): 1 (16.7%) n (%) | AEs by relationship to drug: Possibly related ([1]; 3 mg once daily for 14 days): 0 n (%) | AEs by relationship to drug: Related ([1]; 3 mg once daily for 14 days): 0 n (%) | AEs by relationship to drug: Unlikely related ([1]; 3 mg once daily for 14 days): 0 n (%) | Any AE, all CTCAE grades ([1]; 3 mg once daily for 14 days): 1 (16.7%) n (%) | Grade 1 ([1]; 3 mg once daily for 14 days): 1 (16.7%) n (%) | Grade 2 or higher ([1]; 3 mg once daily for 14 days): 0 n (%) | Serious AEs ([1]; 3 mg once daily for 14 days): 0 n (%) | AEs by relationship to drug: Not related ([1]; 6 mg once daily for 14 days): 0 n (%) | AEs by relationship to drug: Possibly related ([1]; 6 mg once daily for 14 days): 1 (16.7%) n (%) | AEs by relationship to drug: Related ([1]; 6 mg once daily for 14 days): 0 n (%) | AEs by relationship to drug: Unlikely related ([1]; 6 mg once daily for 14 days): 0 n (%) | Any AE, all CTCAE grades ([1]; 6 mg once daily for 14 days): 1 (16.7%) n (%) | Grade 1 ([1]; 6 mg once daily for 14 days): 1 (16.7%) n (%) | Grade 2 or higher ([1]; 6 mg once daily for 14 days): 0 n (%) | Serious AEs ([1]; 6 mg once daily for 14 days): 0 n (%) | AEs by relationship to drug: Not related ([1]; 10 mg once daily for 14 days): 2 (33.3%) n (%) | AEs by relationship to drug: Possibly related ([1]; 10 mg once daily for 14 days): 0 n (%) | AEs by relationship to drug: Related ([1]; 10 mg once daily for 14 days): 0 n (%) | AEs by relationship to drug: Unlikely related ([1]; 10 mg once daily for 14 days): 0 n (%) | Any AE, all CTCAE grades ([1]; 10 mg once daily for 14 days): 2 (33.3%) n (%) | Grade 1 ([1]; 10 mg once daily for 14 days): 2 (33.3%) n (%) | Grade 2 or higher ([1]; 10 mg once daily for 14 days): 0 n (%) | Serious AEs ([1]; 10 mg once daily for 14 days): 0 n (%) | ALT increase to ≥2×ULN ([1]; 14-day daily dosing): no treated subject | ECGs, cardiac biomarkers, or other clinical lab tests ([1]; 14-day daily dosing): No remarkable changes | TSH or free T3 ([1]; 14-day daily dosing): without clear change | free T4 ([1]; 14-day daily dosing): declined in dose-dependent fashion | free testosterone ([1]; 14-day daily dosing): no significant change in free levels | total testosterone ([1]; 14-day daily dosing): Dose-dependent total testosterone increases | Heart rate and blood pressure [1, 4]: remained stable throughout the study | grade of AEs [1, 4]: Grade 1 | tolerability [1, 4]: overall well-tolerated | GGT ([1]; 14-day daily dosing, values remaining below ULN): Dose-dependent GGT increases | SHBG [2]: increased | circulating atherogenic lipid levels including LDL-c, Apo B, total cholesterol, and triglycerides [2]: significant decreases | food effect on Tmax [3]: delayed | food effect on plasma exposure [3]: did not have an impact on the plasma exposure
